Legend:
[1] = test system: VDBA14 aptamer, 5'-NH2-modified (in solution) (DNA, aptamer) AGCAGCACAGAGGTCATGGGGGGTGTGACTTTGGTGTGCCTATGCGTGCTACGGAA; test: microscale thermophoresis, displacement of Cy5-oligonucleotide; settings: 100 mM NaCl, 5 mM KCl, 2 mM MgCl2, 1 mM CaCl2, pH 7.6, 35 °C, tracer displaced: 10 nM 5'-Cy5-AAAGTCACAC (O3), 10 nM aptamer
[2] = test system: VDBA14 aptamer, 5'-Cy5-labeled (DNA, aptamer) AGCAGCACAGAGGTCATGGGGGGTGTGACTTTGGTGTGCCTATGCGTGCTACGGAA; test: microscale thermophoresis; settings: 100 mM NaCl, 5 mM KCl, 2 mM MgCl2, 1 mM CaCl2, 20 mM Tris-HCl pH 7.6, 10% ethanol, 35 °C
[3] = test system: VDBA14 aptamer, immobilized on microarray (DNA, aptamer) AGCAGCACAGAGGTCATGGGGGGTGTGACTTTGGTGTGCCTATGCGTGCTACGGAA; test: microarray fluorescence, displacement of Cy5-oligonucleotide; settings: 100 mM NaCl, 5 mM KCl, 2 mM MgCl2, 1 mM CaCl2; 20 mM Tris-HCl pH 7.6; tracer displaced: 50 nM 5'-Cy5-AAAGTCACAC (O3); 78% maximal reduction at 2 μM

C=C1CC[C@H](O)C/C1=C/C=C1\CCC[C@]2(C)[C@@H]([C@H](C)CCCC(C)(C)O)CC[C@@H]12
apparent Kd [1]: 1 ± 0.18 nM | Kd ([2]; no binding observed at room temperature): 14.99 nM | binding [3]: yes

C=C1CC[C@H](O)C/C1=C/C=C1\CCC[C@]2(C)[C@@H]([C@H](C)CCCC(C)C)CC[C@@H]12
binding ([2]; highest concentration 10 μM): no

Source: PMC6956098 (2019)
